Laboratory results from patent publication US9765069B2, “Antimicrobial compounds” (OXFORD UNIVERSITY INNOVATION LIMITED, priority 2012, dated 2017).
≈ marks a conversion by molar mass, not a printed value.

Tests used:
E. Coli RNAP = E. Coli RNAP (Escherichia coli, UniProt P0A8T7+P0A8V2); test: In vitro activity against E. Coli RNAP; format: biochemical
Description: (§1) These properties can be determined according to techniques that are well known in the art.

[1] = system: mammalian_red blood cell membrane; test: In vitro mammalian red blood cell membrane lysis activity; format: cell-based; settings: Active or inactive at 100 μM
Description: as §1

S. aureus membrane = test: In vitro activity in depolarization of S. aureus membrane; format: cell-based; settings: read-out: DEP (IC50)
Description: as §1

[2] = aqueous solubility at pH 7.4; format: physicochemical; settings: aqueous solubility at pH 7.4 (water with 2% DMSO)
Description: as §1

[3] = system: human peripheral blood cells; test: in vitro toxicities human peripheral blood cells; format: cell-based; settings: human peripheral blood cells
Description: as §1

[4] = system: human embryonic kidney 293 cells; test: in vitro toxicities against human embryonic kidney 293 cells; format: cell-based; settings: human embryonic kidney 293 cells
Description: as §1

S1 = test: MIC determination (bacteria), strain S1; format: cell-based, S. aureus; settings: Table 1; 2-fold broth dilution
Protocol: (§2) MIC determination (bacteria); MICs were determined based on Clinical and Laboratory Standards Institute (CLSI) methodology (Methods for dilution antimicrobial susceptibility tests for bacteria that grow aerobically; Approved Standard—seventh edition. 2006, M7-A7, CLSI, Wayne Pa.) by a 2-fold broth dilution technique in Mueller Hinton (pH7.4 Biorad). For S. pneumoniae, the medium was supplemented with 2.5% laked horse blood. For H. influenzae, the medium was haemophilus test medium (H.T.M.). Overnight cultures were diluted to obtain the final inoculum of 10^5 cfu/well. Incubation was 37° C. overnight in ambient air. The MIC was defined as the lowest concentration which inhibited all visual growth and expressed in μg/ml. For each bacterial species, all of the molecules were tested in the same experiment in order to give a head-to-head comparison.

P1 = test: MIC determination (bacteria), strain P1; format: cell-based, S. pneumoniae; settings: Table 1; 2-fold broth dilution
Protocol: as §2

E2 = test: MIC determination (bacteria), strain E2; format: cell-based, enterococcus; settings: Table 1; 2-fold broth dilution
Protocol: as §2

P9B = test: MIC determination (bacteria), strain P9B; format: cell-based, S. pneumoniae; settings: Table 1; 2-fold broth dilution
Protocol: as §2

[5] = system: S2 (S. aureus 2, MRSA in vivo); test: MIC determination (bacteria), strain S2; format: cell-based; settings: Table 1; 2-fold broth dilution
Protocol: as §2

P9 = test: MIC determination (bacteria), strain P9; format: cell-based, S. pneumoniae; settings: Table 1; 2-fold broth dilution
Protocol: as §2

S4 = test: MIC determination (bacteria), strain S4; format: cell-based, S. aureus; settings: Table 1; 2-fold broth dilution
Protocol: as §2

H4 = test: MIC determination (bacteria), strain H4; format: cell-based, H. influenzae; settings: Table 1; haemophilus test medium
Protocol: as §2

S26 = test: MIC determination (bacteria), strain S26; format: cell-based, S. aureus; settings: Table 1; 2-fold broth dilution
Protocol: as §2

H3 = test: MIC determination (bacteria), strain H3; format: cell-based, H. influenzae; settings: Table 1; haemophilus test medium
Protocol: as §2

E1 = test: MIC determination (bacteria), strain E1; format: cell-based, enterococcus; settings: Table 1; 2-fold broth dilution
Protocol: as §2

E. Coli RNAP, sequence (P0A8V2 whole entry): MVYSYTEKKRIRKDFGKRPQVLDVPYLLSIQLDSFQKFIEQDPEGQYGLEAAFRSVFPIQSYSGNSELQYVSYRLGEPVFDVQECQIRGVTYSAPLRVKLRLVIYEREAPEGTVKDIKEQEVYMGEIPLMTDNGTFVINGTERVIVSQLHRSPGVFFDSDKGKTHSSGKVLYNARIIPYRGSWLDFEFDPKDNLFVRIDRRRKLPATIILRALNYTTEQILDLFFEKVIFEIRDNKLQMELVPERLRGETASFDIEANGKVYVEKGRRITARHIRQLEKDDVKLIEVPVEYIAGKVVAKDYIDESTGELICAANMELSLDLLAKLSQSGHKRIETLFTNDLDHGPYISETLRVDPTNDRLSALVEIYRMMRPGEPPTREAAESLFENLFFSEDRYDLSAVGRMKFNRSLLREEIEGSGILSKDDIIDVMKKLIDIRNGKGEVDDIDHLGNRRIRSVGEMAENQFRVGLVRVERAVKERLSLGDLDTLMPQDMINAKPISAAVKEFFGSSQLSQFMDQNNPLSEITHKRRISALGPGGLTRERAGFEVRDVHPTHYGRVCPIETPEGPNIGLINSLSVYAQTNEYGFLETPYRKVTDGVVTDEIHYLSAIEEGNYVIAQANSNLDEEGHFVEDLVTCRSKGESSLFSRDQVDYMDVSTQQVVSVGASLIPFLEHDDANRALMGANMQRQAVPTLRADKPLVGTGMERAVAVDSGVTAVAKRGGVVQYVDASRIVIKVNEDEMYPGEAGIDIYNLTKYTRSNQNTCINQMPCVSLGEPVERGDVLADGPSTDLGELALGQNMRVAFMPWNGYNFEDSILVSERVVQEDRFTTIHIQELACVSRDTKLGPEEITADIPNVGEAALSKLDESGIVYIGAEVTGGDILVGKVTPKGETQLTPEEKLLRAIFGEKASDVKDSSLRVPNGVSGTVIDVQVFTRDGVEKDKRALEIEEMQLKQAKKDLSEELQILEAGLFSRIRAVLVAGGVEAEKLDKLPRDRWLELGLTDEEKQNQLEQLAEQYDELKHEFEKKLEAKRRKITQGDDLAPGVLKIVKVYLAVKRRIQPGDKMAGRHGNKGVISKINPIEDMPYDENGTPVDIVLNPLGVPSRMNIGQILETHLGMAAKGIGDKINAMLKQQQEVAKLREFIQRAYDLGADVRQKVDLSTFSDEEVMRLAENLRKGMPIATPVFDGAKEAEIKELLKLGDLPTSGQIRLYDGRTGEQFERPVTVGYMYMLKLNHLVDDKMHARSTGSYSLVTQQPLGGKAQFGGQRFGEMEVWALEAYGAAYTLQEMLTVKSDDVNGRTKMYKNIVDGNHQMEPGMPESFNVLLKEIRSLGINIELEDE
E. Coli RNAP, sequence (P0A8T7 whole entry): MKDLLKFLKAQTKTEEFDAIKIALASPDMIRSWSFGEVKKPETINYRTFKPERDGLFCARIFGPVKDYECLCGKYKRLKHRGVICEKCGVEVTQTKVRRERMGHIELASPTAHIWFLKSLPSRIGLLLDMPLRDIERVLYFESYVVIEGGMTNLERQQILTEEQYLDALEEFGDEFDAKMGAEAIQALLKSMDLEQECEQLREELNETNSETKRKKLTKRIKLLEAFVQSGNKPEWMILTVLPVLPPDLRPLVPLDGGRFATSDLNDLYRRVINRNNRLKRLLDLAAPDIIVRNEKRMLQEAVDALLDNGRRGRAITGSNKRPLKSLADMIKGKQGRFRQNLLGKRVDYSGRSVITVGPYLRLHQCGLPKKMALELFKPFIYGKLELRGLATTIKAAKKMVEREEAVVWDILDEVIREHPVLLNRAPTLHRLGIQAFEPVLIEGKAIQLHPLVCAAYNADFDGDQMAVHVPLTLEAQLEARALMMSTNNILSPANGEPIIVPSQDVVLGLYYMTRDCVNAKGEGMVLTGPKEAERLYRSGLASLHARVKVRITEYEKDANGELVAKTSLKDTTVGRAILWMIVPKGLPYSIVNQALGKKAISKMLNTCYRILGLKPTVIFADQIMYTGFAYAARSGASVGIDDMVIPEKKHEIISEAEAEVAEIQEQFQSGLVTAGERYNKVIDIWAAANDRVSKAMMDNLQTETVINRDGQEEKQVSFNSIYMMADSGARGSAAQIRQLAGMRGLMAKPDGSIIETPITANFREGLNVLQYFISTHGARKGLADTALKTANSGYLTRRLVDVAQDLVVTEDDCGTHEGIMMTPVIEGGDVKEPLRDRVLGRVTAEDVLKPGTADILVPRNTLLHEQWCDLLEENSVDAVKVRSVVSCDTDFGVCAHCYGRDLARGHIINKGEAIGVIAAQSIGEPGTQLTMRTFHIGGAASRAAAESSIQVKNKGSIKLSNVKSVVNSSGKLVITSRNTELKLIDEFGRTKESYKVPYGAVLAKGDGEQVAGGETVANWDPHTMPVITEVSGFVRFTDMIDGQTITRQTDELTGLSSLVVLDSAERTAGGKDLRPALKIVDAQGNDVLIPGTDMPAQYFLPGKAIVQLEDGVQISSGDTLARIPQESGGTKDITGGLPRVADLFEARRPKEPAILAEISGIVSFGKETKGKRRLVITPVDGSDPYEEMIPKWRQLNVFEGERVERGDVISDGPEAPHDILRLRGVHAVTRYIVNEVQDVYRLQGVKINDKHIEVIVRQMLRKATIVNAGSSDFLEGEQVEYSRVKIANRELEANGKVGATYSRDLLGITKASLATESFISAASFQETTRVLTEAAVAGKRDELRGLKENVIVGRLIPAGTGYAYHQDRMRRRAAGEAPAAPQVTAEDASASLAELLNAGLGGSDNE
E. Coli RNAP, sequence (P0A7Z4 whole entry partner): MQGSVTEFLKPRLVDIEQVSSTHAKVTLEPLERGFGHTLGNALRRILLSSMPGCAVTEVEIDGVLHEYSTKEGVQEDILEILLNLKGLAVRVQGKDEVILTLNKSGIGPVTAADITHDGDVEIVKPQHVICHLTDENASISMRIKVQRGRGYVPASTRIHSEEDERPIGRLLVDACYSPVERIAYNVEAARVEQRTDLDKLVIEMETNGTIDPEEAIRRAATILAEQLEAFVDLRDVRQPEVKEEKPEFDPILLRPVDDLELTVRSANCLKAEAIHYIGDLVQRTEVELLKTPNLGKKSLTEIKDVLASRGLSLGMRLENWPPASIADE
E. Coli RNAP, sequence (P0A800 whole entry partner): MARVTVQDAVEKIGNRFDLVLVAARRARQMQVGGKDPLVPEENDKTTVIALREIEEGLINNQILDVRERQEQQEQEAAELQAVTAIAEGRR

Row | Structure (SMILES) | IC50 (E. Coli RNAP) | RBC membrane lysis activity (active/inactive) [1] | IC50 (S. aureus membrane) | SOL [2] | PMBC (LD50, μM) [3] | Hek293 (LD50, μM) [4] | MIC S1 (S1) | MIC P1 (P1) | MIC E2 (E2) | MIC P9B (P9B) | MIC S2 [5] | MIC P9 (P9) | MIC S4 (S4) | MIC H4 (H4) | MIC S26 (S26) | MIC H3 (H3) | MIC E1 (E1) | RBCL (IC50, μM) [1]
1 | CCCCCCCCCCCCC/C(O)=C1\C(=O)[C@@H]2CCCC(=O)N2C1=O [22b] | > 100 µM | Active | > 100 µM | 38 to 75 µM | >90.9 µM | 90.9 µM | – | – | – | – | – | – | – | – | – | – | – | –
2 | CCCCCCCC=CC(=O)N1C(=O)C(=C(O)CCC)C(=O)C1CC(C)C (stereo not drawn) [23b] | – | Inactive^d | 49.5 µM | – | 90.9 µM | 90.9 µM | <0.06 µg/mL | 0.25 µg/mL (≈ 0.662 µM) | <0.06 µg/mL | 1 µg/mL (≈ 2.65 µM) | 0.25 µg/mL (≈ 0.662 µM) | 0.12 µg/mL (≈ 0.318 µM) | 0.25 µg/mL (≈ 0.662 µM) | 2 µg/mL (≈ 5.3 µM) | 0.5 µg/mL (≈ 1.32 µM) | >64 µg/mL | 0.25 µg/mL (≈ 0.662 µM) | –
3 | CCCCCCCCCCCC(O)=C1C(=O)C(CCSC)N(C(C)=O)C1=O (stereo not drawn) [24b] | 25 µM | – | – | >300 µM | 90.9 µM | 30.3 µM | 0.25 µg/mL (≈ 0.629 µM) | <0.06 µg/mL | <0.06 µg/mL | 0.5 µg/mL (≈ 1.26 µM) | 1 µg/mL (≈ 2.52 µM) | <0.06 µg/mL | 1 µg/mL (≈ 2.52 µM) | 2 µg/mL (≈ 5.03 µM) | 2 µg/mL (≈ 5.03 µM) | 2 µg/mL (≈ 5.03 µM) | <0.06 µg/mL | –
4 | CCCCCCCC(O)=C1C(=O)C(CCSC)N(C(=O)C2CCCCC2)C1=O (stereo not drawn) [24e] | – | Inactive^d | > 100 µM | >300 µM | >90.9 µM | >90.9 µM | 0.5 µg/mL (≈ 1.22 µM) | 0.12 µg/mL (≈ 0.293 µM) | 0.5 µg/mL (≈ 1.22 µM) | 1 µg/mL (≈ 2.44 µM) | 0.5 µg/mL (≈ 1.22 µM) | 0.12 µg/mL (≈ 0.293 µM) | 2 µg/mL (≈ 4.88 µM) | 2 µg/mL (≈ 4.88 µM) | 1 µg/mL (≈ 2.44 µM) | 16 µg/mL (≈ 39.1 µM) | 0.25 µg/mL (≈ 0.61 µM) | –
5 | CCCCCC(O)=C1C(=O)C(CCSC)N(C(=O)CC(C)CC(C)(C)C)C1=O (stereo not drawn) [24i] | 33 µM | – | > 100 µM | >300 µM | 30.3 µM | 10.1 µM | 0.25 µg/mL (≈ 0.607 µM) | 0.25 µg/mL (≈ 0.607 µM) | 0.25 µg/mL (≈ 0.607 µM) | 2 µg/mL (≈ 4.86 µM) | 0.5 µg/mL (≈ 1.21 µM) | 0.25 µg/mL (≈ 0.607 µM) | 0.5 µg/mL (≈ 1.21 µM) | 2 µg/mL (≈ 4.86 µM) | 1 µg/mL (≈ 2.43 µM) | 8 µg/mL (≈ 19.4 µM) | 0.5 µg/mL (≈ 1.21 µM) | Active
6 | CCCCCCCC(O)=C1C(=O)C(CCSC)N(C(=O)CC(C)CC(C)(C)C)C1=O (stereo not drawn) [24j] | 19 µM | Active | > 100 µM | >300 µM | 30.3 µM | 10.1 µM | 0.5 µg/mL (≈ 1.14 µM) | 0.12 µg/mL (≈ 0.273 µM) | 0.25 µg/mL (≈ 0.569 µM) | 4 µg/mL (≈ 9.1 µM) | 0.5 µg/mL (≈ 1.14 µM) | 0.12 µg/mL (≈ 0.273 µM) | 0.5 µg/mL (≈ 1.14 µM) | 2 µg/mL (≈ 4.55 µM) | 1 µg/mL (≈ 2.27 µM) | >64 µg/mL | 0.25 µg/mL (≈ 0.569 µM) | –
7 | CCCCCCCCCC(O)=C1C(=O)C(CCSC)N(C(=O)CC(C)CC(C)(C)C)C1=O (stereo not drawn) [24k] | – | Active | 68.8 µM | >300 µM | 90.9 µM | 10.1 µM | 0.5 µg/mL (≈ 1.07 µM) | 0.25 µg/mL (≈ 0.535 µM) | 0.25 µg/mL (≈ 0.535 µM) | 2 µg/mL (≈ 4.28 µM) | 0.5 µg/mL (≈ 1.07 µM) | 0.12 µg/mL (≈ 0.257 µM) | 0.5 µg/mL (≈ 1.07 µM) | 64 µg/mL (≈ 137 µM) | 1 µg/mL (≈ 2.14 µM) | >64 µg/mL | 0.5 µg/mL (≈ 1.07 µM) | –
